Source: PubChem BioAssay AID2060337 (Molecular Pharmacology Branch, DTP, NCI, 2025)
“And” between values parts separate entries of the source, which are not always exact repeats. Equal values may be shown once. One block for each compound: values may come before it.

Tested on: 832693-133-R-J1-PDC multi-cell spheroids, viability
Assay: Anticancer human tumor 832693-133-R-J1-PDC patient-derived head and neck squamous carcinoma cell line growth inhibition [IpAb]
Details: for viability, T/C: stronger effect = lower value
Method in brief: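 Combinations with ipatasertib or abemaciclib were tested on tumour spheroids holding HUVEC (25%) and MSC (15%) alongside 60% malignant cells. Top concentration was at or near clinical Cmax (10 microM if undefined), descending in half-log steps.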

[1] = curve of first compound, second compound 0.1 µM
[2] = curve of first compound, second compound 0.316 µM
[3] = curve of first compound, second compound 1 µM
[4] = curve of first compound, second compound 3.16 µM
[5] = curve of first compound, second compound 10 µM
[6] = second compound 0.1 µM, first compound 0.0316 µM
[7] = second compound 0.1 µM, first compound 0.1 µM
[8] = second compound 0.1 µM, first compound 0.316 µM
[9] = second compound 0.1 µM, first compound 1 µM
[10] = second compound 0.1 µM, first compound 3.16 µM
[11] = second compound 0.1 µM, first compound 10 µM
[12] = second compound 0.316 µM, first compound 0.0316 µM
[13] = second compound 0.316 µM, first compound 0.1 µM
[14] = second compound 0.316 µM, first compound 0.316 µM
[15] = second compound 0.316 µM, first compound 1 µM
[16] = second compound 0.316 µM, first compound 3.16 µM
[17] = second compound 0.316 µM, first compound 10 µM
[18] = second compound 1 µM, first compound 0.0316 µM
[19] = second compound 1 µM, first compound 0.1 µM
[20] = second compound 1 µM, first compound 0.316 µM
[21] = second compound 1 µM, first compound 1 µM
[22] = second compound 1 µM, first compound 3.16 µM
[23] = second compound 1 µM, first compound 10 µM
[24] = second compound 3.16 µM, first compound 0.0316 µM
[25] = second compound 3.16 µM, first compound 0.1 µM
[26] = second compound 3.16 µM, first compound 0.316 µM
[27] = second compound 3.16 µM, first compound 1 µM
[28] = second compound 3.16 µM, first compound 3.16 µM
[29] = second compound 3.16 µM, first compound 10 µM
[30] = second compound 10 µM, first compound 0.0316 µM
[31] = second compound 10 µM, first compound 0.1 µM
[32] = second compound 10 µM, first compound 0.316 µM
[33] = second compound 10 µM, first compound 1 µM
[34] = second compound 10 µM, first compound 3.16 µM
[35] = second compound 10 µM, first compound 10 µM
[36] = curve of first compound, second compound 0.01 µM
[37] = curve of first compound, second compound 0.0316 µM
[38] = second compound 0.01 µM, first compound 0.0316 µM
[39] = second compound 0.01 µM, first compound 0.1 µM
[40] = second compound 0.01 µM, first compound 0.316 µM
[41] = second compound 0.01 µM, first compound 1 µM
[42] = second compound 0.01 µM, first compound 3.16 µM
[43] = second compound 0.01 µM, first compound 10 µM
[44] = second compound 0.0316 µM, first compound 0.0316 µM
[45] = second compound 0.0316 µM, first compound 0.1 µM
[46] = second compound 0.0316 µM, first compound 0.316 µM
[47] = second compound 0.0316 µM, first compound 1 µM
[48] = second compound 0.0316 µM, first compound 3.16 µM
[49] = second compound 0.0316 µM, first compound 10 µM
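Note: spheroids exposed to the drugs for one week before the viability readout.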
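Throughout, for viability, T/C: 100% = DMSO vehicle control wells.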

SMILES: C=CC(=O)N1CCN(c2nc(=O)n(-c3c(C)ccnc3C(C)C)c3nc(-c4c(O)cccc4F)c(F)cc23)C(C)C1 (stereo unspecified) + CC(C)NCC(C(=O)N1CCN(c2ncnc3c2C(C)CC3O)CC1)c1ccc(Cl)cc1
IC50 [1]: > 10 µM | IC50 [2]: 4.46 µM | IC50 [3]: 0.237 µM | IC50 [4]: 0.309 µM | IC50 [5]: 3.74 µM | viability, T/C [6]: 96.1% | viability, T/C [7]: 91.6% | viability, T/C [8]: 86% | viability, T/C [9]: 92.2% | viability, T/C [10]: 104% | viability, T/C [11]: 77.3% | viability, T/C [12]: 81.1% | viability, T/C [13]: 75.3% | viability, T/C [14]: 70.9% | viability, T/C [15]: 67.2% | viability, T/C [16]: 56.6% | viability, T/C [17]: 36.6% | viability, T/C [18]: 53.6% | viability, T/C [19]: 55% | viability, T/C [20]: 48.2% | viability, T/C [21]: 41.8% | viability, T/C [22]: 34.7% | viability, T/C [23]: 18.8% | viability, T/C [24]: 55.7% | viability, T/C [25]: 52.4% | viability, T/C [26]: 49.1% | viability, T/C [27]: 43% | viability, T/C [28]: 36.8% | viability, T/C [29]: 17% | viability, T/C [30]: 53.4% | viability, T/C [31]: 69% | viability, T/C [32]: 65.8% | viability, T/C [33]: 57.3% | viability, T/C [34]: 56% | viability, T/C [35]: 18.4%

SMILES: Cn1cnc2c(F)c(Nc3ccc(Br)cc3Cl)c(C(=O)NOCCO)cc21 + CC(C)NCC(C(=O)N1CCN(c2ncnc3c2C(C)CC3O)CC1)c1ccc(Cl)cc1
IC50 [1]: 0.0952 µM | IC50 [2]: < 0.00949 µM | IC50 [3]: < 0.00949 µM | IC50 [4]: < 0.00949 µM | IC50 [5]: 0.16 µM | viability, T/C (second compound 0.1 µM, first compound 0.00949 µM): 77% | viability, T/C (second compound 0.1 µM, first compound 0.03 µM): 66.9% | viability, T/C (second compound 0.1 µM, first compound 0.0949 µM): 45.5% | viability, T/C (second compound 0.1 µM, first compound 0.3 µM): 38.7% | viability, T/C (second compound 0.1 µM, first compound 0.949 µM): 27.1% | viability, T/C (second compound 0.1 µM, first compound 3 µM): 14.7% | viability, T/C (second compound 0.316 µM, first compound 0.00949 µM): 49.5% | viability, T/C (second compound 0.316 µM, first compound 0.03 µM): 39.9% | viability, T/C (second compound 0.316 µM, first compound 0.0949 µM): 33.7% | viability, T/C (second compound 0.316 µM, first compound 0.3 µM): 30.6% | viability, T/C (second compound 0.316 µM, first compound 0.949 µM): 17.4% | viability, T/C (second compound 0.316 µM, first compound 3 µM): 11.2% | viability, T/C (second compound 1 µM, first compound 0.00949 µM): 44.3% | viability, T/C (second compound 1 µM, first compound 0.03 µM): 32% | viability, T/C (second compound 1 µM, first compound 0.0949 µM): 30.4% | viability, T/C (second compound 1 µM, first compound 0.3 µM): 17.7% | viability, T/C (second compound 1 µM, first compound 0.949 µM): 12.5% | viability, T/C (second compound 1 µM, first compound 3 µM): 8.67% | viability, T/C (second compound 3.16 µM, first compound 0.00949 µM): 42.9% | viability, T/C (second compound 3.16 µM, first compound 0.03 µM): 35.3% | viability, T/C (second compound 3.16 µM, first compound 0.0949 µM): 28.6% | viability, T/C (second compound 3.16 µM, first compound 0.3 µM): 22.4% | viability, T/C (second compound 3.16 µM, first compound 0.949 µM): 15.8% | viability, T/C (second compound 3.16 µM, first compound 3 µM): 11.9% | viability, T/C (second compound 10 µM, first compound 0.00949 µM): 64% | viability, T/C (second compound 10 µM, first compound 0.03 µM): 68.1% | viability, T/C (second compound 10 µM, first compound 0.0949 µM): 58.7% | viability, T/C (second compound 10 µM, first compound 0.3 µM): 38.7% | viability, T/C (second compound 10 µM, first compound 0.949 µM): 14.6% | viability, T/C (second compound 10 µM, first compound 3 µM): 4.33%

IC50 (curve of compound): 8.78 µM and 5.33 µM
SMILES: CC1(C)CCC(CN2CCN(c3ccc(C(=O)NS(=O)(=O)c4ccc(NCC5CCOCC5)c([N+](=O)[O-])c4)c(Oc4cnc5[nH]ccc5c4)c3)CC2)=C(c2ccc(Cl)cc2)C1
viability, T/C (compound 0.0316 µM): 98.5% and 113% | viability, T/C (compound 0.1 µM): 98.3% and 122% | viability, T/C (compound 0.316 µM): 106% and 107% | viability, T/C (compound 1 µM): 108% and 102% | viability, T/C (compound 3.16 µM): 110% and 90.5%

SMILES: CC1(C)CCC(CN2CCN(c3ccc(C(=O)NS(=O)(=O)c4ccc(NCC5CCOCC5)c([N+](=O)[O-])c4)c(Oc4cnc5[nH]ccc5c4)c3)CC2)=C(c2ccc(Cl)cc2)C1 + CCN1CCN(Cc2ccc(Nc3ncc(F)c(-c4cc(F)c5nc(C)n(C(C)C)c5c4)n3)nc2)CC1
IC50 [36]: 5.41 µM | IC50 [37]: 6.55 µM | IC50 [1]: 4.19 µM | IC50 [2]: 4.12 µM | IC50 [3]: 4.6 µM | viability, T/C [38]: 93.7% | viability, T/C [39]: 104% | viability, T/C [40]: 102% | viability, T/C [41]: 96.1% | viability, T/C [42]: 75.2% | viability, T/C [43]: 21.2% | viability, T/C [44]: 89% | viability, T/C [45]: 93.9% | viability, T/C [46]: 85.8% | viability, T/C [47]: 86.5% | viability, T/C [48]: 83.6% | viability, T/C [49]: 30.4% | viability, T/C [6]: 73.1% | viability, T/C [7]: 69% | viability, T/C [8]: 78.1% | viability, T/C [9]: 71.2% | viability, T/C [10]: 60.4% | viability, T/C [11]: 17.7% | viability, T/C [12]: 55.6% | viability, T/C [13]: 61% | viability, T/C [14]: 51.9% | viability, T/C [15]: 67.3% | viability, T/C [16]: 75.5% | viability, T/C [17]: 9.24% | viability, T/C [18]: 63.9% | viability, T/C [19]: 72.1% | viability, T/C [20]: 80.2% | viability, T/C [21]: 68.5% | viability, T/C [22]: 72.9% | viability, T/C [23]: 5.47%

SMILES: CCCS(=O)(=O)Nc1ccc(F)c(C(=O)c2c[nH]c3ncc(-c4ccc(Cl)cc4)cc23)c1F + CCN1CCN(Cc2ccc(Nc3ncc(F)c(-c4cc(F)c5nc(C)n(C(C)C)c5c4)n3)nc2)CC1
IC50 [36]: 5.06 µM | IC50 [37]: 3.49 µM | IC50 [1]: 1.24 µM | IC50 [2]: < 0.0316 µM | IC50 [3]: 0.0775 µM | viability, T/C [38]: 97.9% | viability, T/C [39]: 105% | viability, T/C [40]: 100% | viability, T/C [41]: 87.6% | viability, T/C [42]: 63.6% | viability, T/C [43]: 30.9% | viability, T/C [44]: 88.7% | viability, T/C [45]: 88.4% | viability, T/C [46]: 81.5% | viability, T/C [47]: 74.9% | viability, T/C [48]: 51.4% | viability, T/C [49]: 28.3% | viability, T/C [6]: 66.3% | viability, T/C [7]: 60.1% | viability, T/C [8]: 64.9% | viability, T/C [9]: 51.9% | viability, T/C [10]: 35.7% | viability, T/C [11]: 15.2% | viability, T/C [12]: 44.8% | viability, T/C [13]: 51.9% | viability, T/C [14]: 40.4% | viability, T/C [15]: 36.9% | viability, T/C [16]: 26.6% | viability, T/C [17]: 13.4% | viability, T/C [18]: 50.5% | viability, T/C [19]: 49.6% | viability, T/C [20]: 44.2% | viability, T/C [21]: 24.8% | viability, T/C [22]: 18.8% | viability, T/C [23]: 13.3%

SMILES: Cn1ncc(Cl)c1-c1cc(C(=O)NC(CN)Cc2cccc(F)c2)sc1Cl (stereo unspecified) + CC(C)NCC(C(=O)N1CCN(c2ncnc3c2C(C)CC3O)CC1)c1ccc(Cl)cc1
IC50 [1]: 4.96 µM | IC50 [2]: 4.8 µM | IC50 [3]: 3.75 µM | IC50 [4]: 4.14 µM | IC50 [5]: 2.63 µM | viability, T/C [6]: 94.7% | viability, T/C [7]: 87.5% | viability, T/C [8]: 75.5% | viability, T/C [9]: 61.1% | viability, T/C [10]: 90.1% | viability, T/C [11]: 0.23% | viability, T/C [12]: 82.7% | viability, T/C [13]: 73.1% | viability, T/C [14]: 79.9% | viability, T/C [15]: 63.2% | viability, T/C [16]: 92.3% | viability, T/C [17]: 0.22% | viability, T/C [18]: 47.9% | viability, T/C [19]: 59.8% | viability, T/C [20]: 54.6% | viability, T/C [21]: 56.6% | viability, T/C [22]: 74.3% | viability, T/C [23]: 0.2% | viability, T/C [24]: 50.1% | viability, T/C [25]: 59.1% | viability, T/C [26]: 66.1% | viability, T/C [27]: 70.3% | viability, T/C [28]: 80.8% | viability, T/C [29]: 0.2% | viability, T/C [30]: 67.2% | viability, T/C [31]: 73% | viability, T/C [32]: 69.5% | viability, T/C [33]: 73.8% | viability, T/C [34]: 46.1% | viability, T/C [35]: 0.24%
